Source: ChEMBL document CHEMBL3351842, “Synthesis and biological characterization of new aryloxyindole-4,9-diones as potent trypanosomicidal agents” (Bioorg Med Chem Lett, 2014)

Columns and labels:
Trypanosoma cruzi [1] = assay: Trypanocidal activity against Trypanosoma cruzi Y epimastigotes […] assessed as growth inhibition of parasite measured on day 5; type: functional, organism-based; conditions: 120 h
J774 = assay: Cytotoxicity against mouse J774 cells assessed as cell viability after 48 hrs by MTT assay; type: cell-based; conditions: J774, 48 h
Trypanosoma cruzi [2] = assay: Trypanocidal activity against Trypanosoma cruzi Y epimastigotes […] assessed as growth inhibition of parasite at 10 uM measured on day 5; type: functional; conditions: 120 h, read-out: GI
[3] = Selectivity index, ratio of IC50 for mouse J774A cells to IC50 for Trypanosoma cruzi Y epimastigotes; type: toxicity, cell-based; conditions: J774A cells versus Trypanosoma cruzi Y epimastigotes, read-out: Ratio IC50
Trypanosoma cruzi [4] = assay: microbe, parasite or virus in culture; conditions: Y, J774, in Mus musculus, 120 h, read-out: GI
Description: Trypanocidal activity against Trypanosoma cruzi Y epimastigotes infected in mouse J774 cells assessed as growth inhibition of parasite at 5 uM measured on day 5

Row | SMILES | IC50 (Trypanosoma cruzi [1]) [nM] | IC50 (J774) [nM] | inhibition of growth at 10 µM (Trypanosoma cruzi [2]) [%] | selectivity ratio [3] | inhibition of growth at 5 µM (Trypanosoma cruzi [4]) [%]
1 | O=C1C=C(Oc2ccccc2)C(=O)c2ccccc21 | 50 | 12500 | 87.2 | 250 | 
2 | CCOC(=O)c1cc2c(OC)cc(Br)c(OC)c2[nH]1 |  |  | 26.9 |  | 
3 | CCOC(=O)c1cc2c(n1CC)C(=O)C(Oc1ccccc1C)=CC2=O | 140 | 12500 | 100 | 89.3 | 
4 | CCOC(=O)c1cc2c(n1CC)C(=O)C(Oc1ccc(Cl)cc1)=CC2=O | 130 |  | 94.6 |  | 
5 | CCOC(=O)c1cc2c(n1CC)C(=O)C(Oc1ccc(C)cc1)=CC2=O | 20 |  | 92.1 |  | 
6 | CCOC(=O)c1cc2c(OC)cc(Br)c(OC)c2n1CC |  |  | 2.9 |  | 
7 | CCOC(=O)c1cc2c(n1CC)C(=O)C(Oc1ccccc1)=CC2=O | 220 | 22000 | 84.7 | 100 | 
8 | CCOC(=O)c1cc2c(n1CC)C(=O)C(Br)=CC2=O | 530 |  | 97.1 |  | 
9 | CC1CS(=O)(=O)CCN1/N=C/c1ccc([N+](=O)[O-])o1 (configuration not stated) [NIFURTIMOX] | 7000 |  |  | 40 | 49.9
10 | CCOC(=O)c1cc2c(n1CC)C(=O)C(Oc1ccc(OC)cc1)=CC2=O | 20 | 12500 | 90.5 | 625 | 
